Test results as given in patent publication US20200276217A1 (priority 2017, published 2020).

Columns and labels:
[1] = test system: influenza A virus A/Puerto Rico/8/34(PR8)-Luc (IAV-Luc); assay type: cell-based
[2] = test system: A/WSN33/H1N1 influenza virus; experiment: Prophylactic treatment of influenza-infected mice, lung index; settings: 50 mg/kg intragastric, from two days before infection and 5 days after; 40 LD50 via nasal dripping; compared with 50 mg/kg ribavirin; FIG. 4
Description: […] Barb/C mice (6- to 8-week old) were randomly divided into 4 groups (A, B, C, D) with 5 mice in each group. All animals were marked by ear clipping and then treated with a specified preparation. Group A was a blank control group, Group B was a group in which PBS was used to resist virus infection, Group C was a group in which ribavirin was used to resist virus infection, and Group D was a group in which azithromycin was used to resist virus infection. Two days before the drugs being used to resist virus infection, the mice were treated with 50 mg/kg ribavirin and 50 mg/kg azithromycin by intragastric administration, and were infected with the influenza virus via nasal dripping with a dose of 40 LD50 (10^3 PFU/ml) on the third day (50 μl/mouse), and PBS was administered instead in the blank control group. The mice were administered consecutively for 5 days after virus infection, and the administration method was same as above. After 12 hours of fasting and water deprivation, the body weights were weighed, the lungs were incised aseptically and weighed after the mice were sacrificed by eyeball extirpating, and the lung indexes were calculated so as to evaluate the protective effect of azithromycin for mice in influenza virus infection, in which the calculation method of the lung index was a conventional calculation method known in the art.

HA/NA-HIVLuc pseudovirus = assay type: cell-based, influenza virus; settings: A549 cells, pre-incubated 8 h with concentration gradients, relative to absolute ethyl alcohol, FIG. 5
[3] = target: RNA polymerase of influenza virus (Influenza A virus, UniProt P03428+P03431+P03433); assay type: cell-based
[4] = test system: IAV-Luc influenza virus (A/Puerto Rico/8/34(PR8)-Luc); assay type: cell-based; settings: 10 μM, A549 cells, three treatment schemes, detection after 24 h, FIG. 7

azithromycin
ability to resist influenza virus infection (infection rate relative to absolute ethyl alcohol control) [1]: had the ability to resist influenza virus infection
efficacy against influenza virus infection compared among the macrolide antibiotics ([1]; 10 μM, A549 cells, FIG. 1): had the strongest efficacy
inhibitory effect against influenza virus infection in the screening of small molecule compounds ([1]; 10 μM, A549 cells, FIG. 2): quite strong inhibitory effect against influenza virus infection
ability to resist influenza virus infection compared with oseltamivir ([1]; same concentration (10 μM), A549 cells, FIG. 3): stronger than that of oseltamivir
protective effect for mice in influenza virus infection (lung index) [2]: better protective effect for mice in influenza virus infection as compared with ribavirin
inhibition of influenza virus (pseudovirus) infection at various concentrations (HA/NA-HIVLuc pseudovirus): inhibited influenza virus infection and the inhibitory effect was concentration-dependent
effect on the replication of the RNA polymerase of influenza virus [3]: did not affect the replication of the RNA polymerase of influenza virus
site of antiviral action (host cell versus virus particles) [4]: exerted antiviral effect mainly by acting on the virus particles

erythromycin
ability to resist influenza virus infection (infection rate relative to absolute ethyl alcohol control) [1]: had the ability to resist influenza virus infection

midecamycin
ability to resist influenza virus infection (infection rate relative to absolute ethyl alcohol control) [1]: had the ability to resist influenza virus infection

roxithromycin
ability to resist influenza virus infection (infection rate relative to absolute ethyl alcohol control) [1]: had the ability to resist influenza virus infection
